# In ChEMBL document CHEMBL4308851, “Alkyl-guanidine Compounds as Potent Broad-Spectrum Antibacterial Agents: Chemical Library Extension and Biological Characterization” (J Med Chem, 2018):
# Experiments:
# Streptococcus pyogenes = assay: Antibacterial activity against Streptococcus pyogenes ATCC 12344 after 18 hrs by microdilution broth method; assay type: functional; conditions: ATCC 12344, 18 h
# Klebsiella pneumoniae [1] = assay: Antibacterial activity against Klebsiella pneumoniae ATCC […] after 18 hrs by microdilution broth method; assay type: functional
# Bacillus spizizenii = assay: Antibacterial activity against Bacillus subtilis ATCC 6633 after 18 hrs by microdilution broth method; assay type: functional; conditions: ATCC 6633, 18 h
# Pseudomonas aeruginosa = assay: Antibacterial activity against Pseudomonas aeruginosa ATCC 27853 after 18 hrs by microdilution broth method; assay type: functional; conditions: ATCC 27853, 18 h
# Staphylococcus aureus = assay: Antibacterial activity against Staphylococcus aureus ATCC 25923 after 18 hrs by microdilution broth method; assay type: functional; conditions: ATCC 25923, 18 h
# Enterococcus faecalis = assay: Antibacterial activity against Enterococcus faecalis ATCC 19433 after 18 hrs by microdilution broth method; assay type: functional; conditions: ATCC 19433, 18 h
# Escherichia coli = assay: Antibacterial activity against Escherichia coli CCUG after 18 hrs by microdilution broth method
# Acinetobacter baumannii [2] = assay: Antibacterial activity against Acinetobacter baumannii ATCC 17978 after 18 hrs by microdilution broth method; assay type: functional; conditions: ATCC 17978, 18 h
# Acinetobacter baumannii [3] = assay: Antibacterial activity against Acinetobacter baumannii isolate AC-54/97 after 18 hrs by microdilution broth method; assay type: functional; conditions: isolate AC-54/97, 18 h
# Klebsiella pneumoniae [4] = assay: Antibacterial activity against Klebsiella pneumoniae isolate SI-081 after 18 hrs by microdilution broth method; assay type: functional; conditions: isolate SI-081, 18 h
# [5] = system: Stenotrophomonas maltophilia; assay: Antibacterial activity against Stenotrophomonas maltophilia isolate 634/08 after 18 hrs by microdilution broth method; assay type: functional; conditions: isolate 634/08, 18 h
# Enterobacter cloacae = assay: Antibacterial activity against Enterobacter cloacae isolate VA-417/02 after 18 hrs by microdilution broth method; assay type: functional; conditions: isolate VA-417/02, 18 h
# Burkholderia cepacia = assay: Antibacterial activity against Burkholderia cepacia isolate SI-R2 after 18 hrs by microdilution broth method; assay type: functional; conditions: isolate SI-R2, 18 h
SMILES,MIC (Streptococcus pyogenes),MIC (Klebsiella pneumoniae [1]),MIC (Bacillus spizizenii),MIC (Pseudomonas aeruginosa),MIC (Staphylococcus aureus),MIC (Enterococcus faecalis),MIC (Escherichia coli),MIC (Acinetobacter baumannii [2]),MIC (Acinetobacter baumannii [3]),MIC (Klebsiella pneumoniae [4]),MIC [5],MIC (Enterobacter cloacae),MIC (Burkholderia cepacia)
CNC(=O)NC(=N)NCCCCCCCCN(CCCCCCCCNC(=N)NC(=O)NC)C(=O)N(CCCCCCCCNC(=N)NCC1CC1)CCCCCCCCNC(=N)NCC1CC1,2 µg/mL,4 µg/mL,2 µg/mL,16 µg/mL,2 µg/mL,4 µg/mL,4 µg/mL,8 µg/mL,,,,,
CNC(=N)NCCCCCCCCN(CCCCCCCCNC(=N)N)C(=O)N(CCCCCCCCNC(=N)N)CCCCCCCCNC(=N)NC,0.5 µg/mL,4 µg/mL,0.5 µg/mL,8 µg/mL,0.5 µg/mL,1 µg/mL,1 µg/mL,8 µg/mL,4 µg/mL,8 µg/mL,16 µg/mL,4 µg/mL,32 µg/mL
CCCCCCCCCC(=O)N[C@@H](Cc1c[nH]c2ccccc12)C(=O)N[C@H](CC(N)=O)C(=O)N[C@@H](CC(=O)O)C(=O)N[C@@H]1C(=O)NCC(=O)N[C@@H](CCCN)C(=O)N[C@@H](CC(=O)O)C(=O)N[C@H](C)C(=O)N[C@@H](CC(=O)O)C(=O)NCC(=O)N[C@H](CO)C(=O)N[C@@H]([C@H](C)CC(=O)O)C(=O)N[C@@H](CC(=O)c2ccccc2N)C(=O)O[C@@H]1C,0.12 µg/mL,,1 µg/mL,,0.5 µg/mL,1 µg/mL,,,,,,,
CCNC(=N)NCCCCCCCCN(CCCCCCCCNC(=N)NCC)C(=O)N(CCCCCCCCNC(=N)NCC)CCCCCCCCNC(=N)NCC,0.25 µg/mL,4 µg/mL,0.5 µg/mL,32 µg/mL,0.5 µg/mL,1 µg/mL,2 µg/mL,16 µg/mL,8 µg/mL,8 µg/mL,32 µg/mL,2 µg/mL,32 µg/mL
N=C(NCCCCCCCCN(CCCCCCCCNC(=N)NCC1CC1)C(=O)N(CCCCCCNC(=N)NCC1CC1)CCCCCCNC(=N)NCC1CC1)NCC1CC1,1 µg/mL,4 µg/mL,4 µg/mL,128 µg/mL,2 µg/mL,8 µg/mL,4 µg/mL,64 µg/mL,,,,,
N=C(N)NCCCCCCN(CCCCCCNC(=N)NCC1CC1)C(=O)N(CCCCCCNC(=N)N)CCCCCCNC(=N)NCC1CC1,2 µg/mL,32 µg/mL,4 µg/mL,256 µg/mL,4 µg/mL,32 µg/mL,16 µg/mL,128 µg/mL,,,,,
CC(C)(C)OC(=O)/N=C(/NCCCCCCCCN(CCCCCCCCN/C(=N/C(=O)OC(C)(C)C)NC(=O)OC(C)(C)C)C(=O)N(CCCCCCCCN/C(=N/C(=O)OC(C)(C)C)N(CC1CC1)C(=O)OC(C)(C)C)CCCCCCCCN/C(=N/C(=O)OC(C)(C)C)N(CC1CC1)C(=O)OC(C)(C)C)NC(=O)OC(C)(C)C,≥ 256 µg/mL,≥ 256 µg/mL,≥ 256 µg/mL,≥ 256 µg/mL,≥ 256 µg/mL,≥ 256 µg/mL,≥ 256 µg/mL,≥ 256 µg/mL,≥ 256 µg/mL,≥ 256 µg/mL,≥ 256 µg/mL,≥ 256 µg/mL,≥ 256 µg/mL
